{"source": "patent US7659284B2", "about": "“Thiazolopyridine kinase inhibitors” (Janssen Pharmaceutica NV, priority 2004, dated 2010)", "type_in_all_cases": "biochemical", "key": {"[1]": {"target": "T1, EGFR (Homo sapiens, UniProt P00533)", "T1 construct": "started at nucleotide 2189 (corresponding to amino acid 667) and ended at the termination codon; made in house; host or cells: Sf9 insect cells (baculovirus)", "T1 sequence (P00533 667-1210 limits assumed)": "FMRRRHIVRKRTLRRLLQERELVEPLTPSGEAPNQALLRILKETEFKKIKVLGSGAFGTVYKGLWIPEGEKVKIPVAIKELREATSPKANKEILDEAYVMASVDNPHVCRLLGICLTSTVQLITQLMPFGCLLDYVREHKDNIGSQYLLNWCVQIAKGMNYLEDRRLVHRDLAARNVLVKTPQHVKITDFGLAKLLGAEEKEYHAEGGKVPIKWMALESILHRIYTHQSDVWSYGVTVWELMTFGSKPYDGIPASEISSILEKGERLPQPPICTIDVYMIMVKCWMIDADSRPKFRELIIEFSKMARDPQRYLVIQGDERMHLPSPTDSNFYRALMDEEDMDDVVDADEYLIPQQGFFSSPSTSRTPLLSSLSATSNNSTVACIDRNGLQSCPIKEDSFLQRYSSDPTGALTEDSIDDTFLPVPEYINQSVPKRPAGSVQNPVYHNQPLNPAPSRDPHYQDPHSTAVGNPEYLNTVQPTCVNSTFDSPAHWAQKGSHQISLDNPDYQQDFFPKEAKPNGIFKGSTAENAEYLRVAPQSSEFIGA", "assay": "EGFR Kinase Assay (GST-EGFR, 33P-ATP, Streptavidin Flashplate)", "conditions": "for IC50: GST-EGFR intracellular portion, 5 μM ATP", "description": "The EGFR kinase used was a fusion of Glutathione-S-Transferase (GST) and a PCR amplified intracellular portion of EGFR (NM_005228). The intracellular portion of EGFR started at nucleotide 2189 (corresponding to amino acid 667) and ended at the termination codon. The portion was PCR amplified with primers that added the lambda attB sequences to each end, recombined into an entry vector, then into a GST destination vector (as described in Gateway Technologies Manual by Invitrogen Corporation, Carlsbad, Calif.).\nThe destination vector was recombined in the DH10BAC strain of bacteria to produce a bacmid. The bacmid was transfected into Sf 9 cells and the supernatant containing the baculovirus was collected. The GSTEGFR protein was purified using large cultures of Sf 9 cells infected with stock virus. After an appropriate period of time, the cells were collected and lysed. The GSTEGFR was then purified from the lysate on Glutathione-Sepharose columns (as described by Amersham Biosciences, Buckinghamshire, United Kingdom).\nThe EGFR substrate was prepared by biotinylating polyGluTyr (128 mg) (Sigma, St. Louis, Mo.) in a 1×PBS buffer incubated together with a 12-fold molar excess of Sulfo-NHS-LC-Biotin on ice for at least 2 hrs. The free biotin was separated from the biotinylated polyGluTyr on a gel filtration column.\nA mixture of a 10× kinase buffer (500 mM Tris at pH 8.0, 100 mM Magnesium Chloride and 1 mM Sodium Vanadate), DTT (1 mM final from 500 mM stock), ATP (5 μM final from 10 mM stock), biotinylated polyGluTyr (10 μg/μL stock), γ-^33P ATP (10 μCi/μL stock) and water was added to each well (90 μL/well) of a Streptavidin Flashplate (Perkin Elmer, Wellesley, Mass.).\nTest compound in 100% DMSO (2 μL) was added to the appropriate wells. Diluted GSTEGFR (1:300 dilution in 50 mM Tris at pH 8.0 and 0.1% bovine serum albumin) (10 μL) was added to the wells to initiate the reactions.\nThe plates were incubated at 30° C. for 1 hr with shaking. The reacted contents were removed and the plates were sequentially washed three times with a 1×PBS stop buffer (300 μL without Magnesium and Calcium) and 100 mM EDTA. After the final wash, the same stop buffer (200 μL) was added to the wells. The plates were then sealed and read on the TopCount scintillation counter.\nTest compounds were assayed in triplicate at 16 concentrations at half-log dilutions starting at 200 uM. A maximum and minimum signal for the assay was determined on each plate. The percent inhibition of a test compound was calculated accord to the formula\nFor a series of test concentrations, the IC50 was derived by graphing percent inhibition against the log of the concentrations tested for a given compound. For those compounds without an IC50, the percent inhibition results are shown at a test concentration of 2 μM."}, "[2]": {"target": "T2, c-Src kinase (human) (Homo sapiens, UniProt P12931)", "T2 construct": "purchased Upstate Biotechnology, Lake Placid, N.Y", "T2 sequence (P12931 whole entry)": "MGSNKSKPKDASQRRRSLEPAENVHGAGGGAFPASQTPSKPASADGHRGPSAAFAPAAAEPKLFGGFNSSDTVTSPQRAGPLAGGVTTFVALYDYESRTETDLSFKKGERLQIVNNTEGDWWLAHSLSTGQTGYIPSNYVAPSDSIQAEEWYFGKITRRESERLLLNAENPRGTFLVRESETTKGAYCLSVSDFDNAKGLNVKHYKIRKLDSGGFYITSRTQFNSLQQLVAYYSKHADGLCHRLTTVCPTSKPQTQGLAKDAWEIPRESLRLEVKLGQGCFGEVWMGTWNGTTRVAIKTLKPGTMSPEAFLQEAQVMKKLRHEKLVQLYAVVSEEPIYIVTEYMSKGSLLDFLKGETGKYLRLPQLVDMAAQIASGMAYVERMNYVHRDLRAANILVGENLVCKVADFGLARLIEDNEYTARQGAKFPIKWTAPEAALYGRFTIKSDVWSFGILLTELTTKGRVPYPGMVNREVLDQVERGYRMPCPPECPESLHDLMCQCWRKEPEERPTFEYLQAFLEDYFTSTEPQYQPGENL", "assay": "c-Src Kinase Assay", "conditions": "for inhibition at 1 µM: test concentration (1) 1 μM, read-out: c-SRC percent inhibition; for IC50: human c-Src, 5 μM ATP", "protocol": "[…] a 10× kinase buffer (80 mM MOPS at pH 7.0, 2 mM EDTA and 100 mM Magnesium Chloride), ATP (5 μM final from a 10 mM stock), a Cdc2 peptide KVEKIGEGTYGVVYK (100 μM final from a 2.5 mM stock), γ-^33P ATP (10 μCi/μL stock) and water (20 μL/well) was added to each well of a Streptavidin Flashplate.\nTest compound in 100% DMSO (0.5 μL) was added to the appropriate wells. Diluted c-Src kinase (human) (Upstate Biotechnology, Lake Placid, N.Y.) (diluted in a buffer consisting of 20 mM MOPS at pH 7.0, 1 mM EDTA, β-mercaptoethanol (0.1%), Brij-35 (0.01%), glycerol (5%), and 1 mg/mL bovine serum albumin) (2.5 μL) was added to the wells to initiate the reactions. The reaction plates were incubated at 30° C. for 40 min. The reaction was terminated by the addition of a 3% phosphoric acid solution (5 μL). The reaction product (10 μL) was spotted onto a P30 filtermat and washed for 5 minutes in phosphoric acid (75 mM). The wash sequence was repeated two more times, followed with one final wash in methanol. The plates were then dried, sealed and read on the TopCount scintillation counter after adding 30 μL scintillation fluid.\nThe percent inhibitions and IC50 values were derived according to the procedure described in Example 52. For those compounds without an IC50, the percent inhibition results are shown at a test concentration of ^(1)1 μM or ^(2)1.6 μM."}, "[3]": {"target": "T3, Lyn kinase (human) (Homo sapiens, UniProt P07948)", "T3 construct": "purchased Upstate Biotechnology, Lake Placid, N.Y", "T3 sequence (P07948 whole entry)": "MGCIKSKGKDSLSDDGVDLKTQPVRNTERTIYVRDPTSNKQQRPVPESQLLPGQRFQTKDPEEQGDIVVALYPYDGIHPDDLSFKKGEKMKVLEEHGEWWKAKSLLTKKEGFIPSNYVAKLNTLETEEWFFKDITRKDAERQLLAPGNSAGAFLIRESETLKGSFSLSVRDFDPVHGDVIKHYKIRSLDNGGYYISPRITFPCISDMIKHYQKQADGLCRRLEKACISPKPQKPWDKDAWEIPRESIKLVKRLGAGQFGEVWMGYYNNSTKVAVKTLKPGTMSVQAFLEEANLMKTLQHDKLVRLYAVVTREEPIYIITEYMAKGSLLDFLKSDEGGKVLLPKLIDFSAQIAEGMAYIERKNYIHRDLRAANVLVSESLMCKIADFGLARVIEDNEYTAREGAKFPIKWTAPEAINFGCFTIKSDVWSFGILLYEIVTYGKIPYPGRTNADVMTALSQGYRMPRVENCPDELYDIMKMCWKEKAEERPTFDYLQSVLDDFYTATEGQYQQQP", "assay": "Lyn Kinase Assay (h)", "conditions": "for inhibition at 1 µM: test concentration (1) 1 μM; for IC50: (h) human Lyn, 5 μM ATP", "protocol": "A mixture of a 10× kinase buffer (500 mM MOPS at pH 7.5, 1 mM EGTA, 1 mM Sodium Vanadate, 1% β-mercaptoethanol and 100 mM Magnesium Acetate), ATP (5 μM final from a 10 mM stock), polyGluTyr (0.1 mg/mL final from a 1 mg/mL stock), γ-^33P ATP (10 μCi/μL stock) and water (20 μL/well) was added to each well of a Streptavidin Flashplate.\nTest compound in 100% DMSO (0.5 μL) was added to the appropriate wells. Diluted Lyn kinase (human) (Upstate Biotechnology, Lake Placid, N.Y.) (diluted in a buffer consisting of 50 mM Tris at pH 7.5, 0.1 mM EGTA, Sodium Vanadate (0.1 mM), β-mercaptoethanol (0.1%) and 1 mg/mL bovine serum albumin) (2.5 μL) was added to the wells to initiate the reactions.\nThe reaction plates were incubated at 30° C. for 40 min. The reaction was terminated by the addition of a 3% phosphoric acid solution (5 μL). The reaction product (10 μL) was spotted onto a P30 filtermat and washed for 5 minutes in phosphoric acid (75 mM). The wash sequence was repeated two more times, followed with one final wash in methanol. The plates were then dried, sealed and read on the TopCount scintillation counter after adding 30 μL scintillation fluid.\nThe percent inhibitions and IC50 values were derived according to the procedure described in Example 52. For those compounds without an IC50, the percent inhibition results are shown at a test concentration of ^(1) 1 μM or ^(2) 1.6 μM."}, "[4]": {"target": "LYN (m) (Mus musculus, UniProt P25911)", "sequence (P25911 whole entry)": "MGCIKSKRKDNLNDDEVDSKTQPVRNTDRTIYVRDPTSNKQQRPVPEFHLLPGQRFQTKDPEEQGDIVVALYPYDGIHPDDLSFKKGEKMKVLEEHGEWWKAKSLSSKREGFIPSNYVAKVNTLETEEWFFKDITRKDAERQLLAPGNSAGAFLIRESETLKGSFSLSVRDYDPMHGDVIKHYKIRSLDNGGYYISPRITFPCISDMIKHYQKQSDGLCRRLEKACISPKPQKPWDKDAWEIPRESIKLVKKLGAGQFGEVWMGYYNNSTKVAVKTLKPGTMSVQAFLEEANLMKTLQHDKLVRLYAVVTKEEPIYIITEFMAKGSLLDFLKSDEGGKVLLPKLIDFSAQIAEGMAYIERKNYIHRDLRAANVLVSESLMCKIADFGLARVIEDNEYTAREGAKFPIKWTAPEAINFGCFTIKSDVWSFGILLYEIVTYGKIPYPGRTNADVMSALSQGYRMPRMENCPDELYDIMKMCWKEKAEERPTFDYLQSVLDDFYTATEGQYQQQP", "assay": "Lyn Kinase Assay (m)", "conditions": "for inhibition at 1 µM: test concentration (1) 1 μM, read-out: LYN percent inhibition (m)"}, "[5]": {"target": "T4, HER-2 (Homo sapiens, UniProt P04626)", "T4 construct": "the nucleotides encoding amino acids 679 to 1255 of HER-2; HIS6 with thrombin site (N); purchased Proqinase (Freiburg, Germany)", "T4 sequence (P04626 679-1255)": "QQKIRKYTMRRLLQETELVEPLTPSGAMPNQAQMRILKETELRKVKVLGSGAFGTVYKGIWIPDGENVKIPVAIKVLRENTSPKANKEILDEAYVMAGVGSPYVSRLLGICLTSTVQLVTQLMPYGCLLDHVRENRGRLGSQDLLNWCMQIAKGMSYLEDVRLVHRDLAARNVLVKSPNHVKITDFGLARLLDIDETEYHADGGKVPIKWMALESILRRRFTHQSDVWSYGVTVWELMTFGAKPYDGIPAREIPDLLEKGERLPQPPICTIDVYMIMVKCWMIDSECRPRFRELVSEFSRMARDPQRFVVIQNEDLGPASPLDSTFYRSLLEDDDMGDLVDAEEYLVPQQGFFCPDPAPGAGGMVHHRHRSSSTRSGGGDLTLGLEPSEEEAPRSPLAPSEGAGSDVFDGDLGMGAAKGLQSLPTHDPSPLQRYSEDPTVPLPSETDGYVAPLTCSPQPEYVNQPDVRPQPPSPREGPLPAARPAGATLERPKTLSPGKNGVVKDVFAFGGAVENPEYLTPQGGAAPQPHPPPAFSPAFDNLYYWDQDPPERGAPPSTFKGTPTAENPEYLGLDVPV", "assay": "HER-2 Kinase Assay", "conditions": "GST-HER2 kinase, 1 μM ATP", "protocol": "The HER-2 kinase used was purified at Proqinase (Freiburg, Germany) from a construct that consisted of a fusion of GST (Glutathione-S-Transferase), HIS6-Thrombin and the nucleotides encoding amino acids 679 to 1255 of HER-2.\nA mixture of a 10× kinase reaction buffer (600 mM Hepes at pH 7.5, 30 mM Magnesium Chloride, 0.03 mM Sodium Vanadate and 500 μg/mL PEG 20,000), DTT (1.2 mM final from a 10 mM stock), ATP (1 μM from a 10 mM stock), biotinylated polyGluTyr (1.5 ng/μL final from stock of 1 μg/μL prepared by Upstate Biotechnologies, Lake Placid, N.Y.), Manganese Chloride (3 mM final from a 1 M stock), γy-^33P-ATP (10 μCi/μL stock) and water (70 μL/well) was added to each well of a Streptavidin Flashplate (Cat. # SMP103, NEN, Boston, Mass.).\nTest compound stock (1 μL) was added to the appropriate wells. Diluted GSTHER2 kinase (6.7 ng/μL diluted into 50 mM Tris-HCl at pH 8.0 and 0.1% bovine serum albumin) (30 μL) was added (total volume of 200 ng/well) to initiate the reactions.\nThe reaction plates were incubated at 30° C. for 1 hr. The reaction was terminated by aspirating the reaction mixture from the plate wells and washing the wells three times with a 1×PBS stop buffer (300 μL) and 100 mM EDTA. After the final wash, the same stop buffer (200 μL) was again added to the wells. The plates were then sealed and read on the TopCount scintillation counter.\nThe IC50 was derived according to the procedure described in Example 52. For those compounds without an IC50, the percent inhibition results are shown at a test concentration of 1 μM."}, "[6]": {"conditions": "(h), read-out: LYN percent inhibition (h)"}}, "note": "Several values for one entry are separate records, joined by “and”; a condition that tells them apart may be missing. Equal values may be shown once.", "data": [{"smiles": "C#Cc1cccc(Nc2c(C#N)cnc3nc(Nc4ccc(S(=O)(=O)NCCCN(C)C)cc4)sc23)c1", "note": "[Cpd 23, 4-[6-cyano-7-(3-ethynyl-phenylamino)-thiazolo[4,5-b]pyridin-2-ylamino]-N-(3-dimethylamino-propyl)-benzenesulfonamide]", "values": [{"measurement": "IC50", "setting": "[1]", "result": 20.4, "unit": "nM"}, {"measurement": "inhibition at 1 µM", "setting": "[2]", "result": -2, "unit": "%"}, {"measurement": "inhibition at 1 µM", "setting": "[3]; [6]", "result": 8, "unit": "%"}, {"measurement": "inhibition at 1 µM", "setting": "[4]", "result": 42, "unit": "%"}]}, {"smiles": "N#Cc1cnc2nc(Nc3ccc(CN4CCOCC4)cc3)sc2c1Nc1c(Cl)ccc2c1OCO2", "note": "[Cpd 20, 7-(5-chloro-benzo[1,3]dioxol-4-ylamino)-2-(4-morpholin-4-ylmethyl-phenylamino)-thiazolo[4,5-b]pyridine-6-carbonitrile]", "values": [{"measurement": "IC50", "setting": "[1]", "result": "378 nM and 941 nM"}, {"measurement": "IC50", "setting": "[2]", "result": 11, "unit": "nM"}, {"measurement": "IC50", "setting": "[3]", "result": 11, "unit": "nM"}, {"measurement": "IC50", "setting": "[4]", "result": 9, "unit": "nM"}]}, {"smiles": "CN(C)Cc1ccc(Nc2nc3ncc(C#N)c(Nc4cccc5c4OC(F)(F)O5)c3s2)cc1", "note": "[Cpd 25, 7-(2,2-difluoro-benzo[1,3]dioxol-4-ylamino)-2-(4-dimethylaminomethyl-phenylamino)-thiazolo[4,5-b]pyridine-6-carbonitrile]", "values": [{"measurement": "IC50", "setting": "[1]", "result": 43.3, "unit": "nM"}, {"measurement": "IC50", "setting": "[2]", "result": 1410, "unit": "nM"}, {"measurement": "IC50", "setting": "[3]", "result": 224, "unit": "nM"}, {"measurement": "IC50", "setting": "[4]", "result": 790, "unit": "nM"}, {"measurement": "IC50", "setting": "[5]", "result": 92700, "unit": "nM"}]}, {"smiles": "CN1CCN(Cc2ccc(Nc3nc4ncc(C#N)c(Nc5ccc(Oc6ccccc6)cc5)c4s3)cc2)CC1", "note": "[Cpd 51, 2-[4-(4-methyl-piperazin-1-ylmethyl)-phenylamino]-7-(4-phenoxy-phenylamino)-thiazolo[4,5-b]pyridine-6-carbonitrile]", "values": [{"measurement": "inhibition at 2 µM", "setting": "[1]; test concentration of 2 μM, read-out: EGFR percent inhibition", "result": 0, "unit": "%"}, {"measurement": "c-SRC percent inhibition", "setting": "[2]; test concentration not marked (1 μM or 1.6 μM)", "result": 0, "unit": "%"}, {"measurement": "inhibition at 1.6 µM", "setting": "[3]; (h), test concentration (2) 1.6 μM, read-out: LYN percent inhibition (h)", "result": 37, "unit": "%"}, {"measurement": "IC50", "setting": "[5]", "result": "> 100000", "unit": "nM"}]}, {"smiles": "N#Cc1cnc2nc(Nc3ccc(CN4CCCC4)cc3)sc2c1Nc1ccc(OCc2cccc(F)c2)c(Cl)c1", "note": "[Cpd 24, 7-[3-chloro-4-(3-fluoro-benzyloxy)-phenylamino]-2-(4-pyrrolidin-1-ylmethyl-phenylamino)-thiazolo[4,5-b]pyridine-6-carbonitrile]", "values": [{"measurement": "IC50", "setting": "[1]", "result": 33.3, "unit": "nM"}, {"measurement": "inhibition at 1 µM", "setting": "[2]", "result": 15, "unit": "%"}, {"measurement": "inhibition at 1 µM", "setting": "[3]; [6]", "result": -5, "unit": "%"}, {"measurement": "inhibition at 1 µM", "setting": "[4]", "result": 10, "unit": "%"}, {"measurement": "IC50", "setting": "[5]", "result": 2060, "unit": "nM"}]}]}
